How the values were obtained:
[1] = tested on: NIH/3T3 cell adhesion; assay: Cell adhesion assay (xCELLigence impedance); type: cell-based; conditions: 10^-5 M
Procedure: NIH3T3cells (10000/well) were seeded in a 96 well plate microtiter xCELLigence assay plate (E-Plate) (ACEA Biosciences Inc.) and placed on the Real-time xCELLigence Cell Analyzer (Roche Applied Science) platform at 37°C to measure the “cell index” every 5 min for a period of 6 h. The cell index unit is defined as (Rn − Rb)/15. Rn is the cell electrode impedance of the well when it contains cells. Rb is the background impedance of the well with the media alone.
Supplementary Fig. 3: Example of one pharmacophore model used for virtual screening. (a) The pharmacophore model shown was created based on RAC1 (grey) and NSC23766 (orange) interaction. […] (b) Impact of different screening molecules (10^-5 M) on NIH/3T3 cell adhesion (xCELLingence Real-time cellanalysis, Agilent), migration (CYTOO Mobility plates) and proliferation (xCELLingence Real-time cell analysis, Agilent) .The level of RAC activation is determinedby the detection of RAC-GTP (pull-down assay) in NIH/3T3 cell treated with EGF (10 ng/mL) and the differentmolecules and normalize to the level of RAC activity measuredin the presenceof the reference RAC inhibitor EHT1864.
(§1) Supplementary Fig. 4: A41 inhibits RAC-dependent cell functions. (a) Representative records of single NIH/3T3 cell migration on micropatterned fibronectin lines (CYTOO Mobility plates) in the absence (Control)and presenceA41 at 10^-5 M (left panel) and corresponding quantification of migration speed (right panel) (scale bar: 20µm). […] (b) Typical curves showing the cell index representing the adhesion of NIH/3T3 fibroblast (xCELLingence Real-time cell analysis, Agilent) under control condition (Control) and pre-treated with 10 µM A41 or NSC23766 (left panel) and corresponding quantification of cell adhesion speed (right panel). […]

[2] = tested on: NIH/3T3 cell proliferation; assay: Cell proliferation (xCELLigence); type: cell-based; conditions: 10^-5 M
From the text: (§2) Supplementary Fig. 3: Example of one pharmacophore model used for virtual screening. (a) The pharmacophore model shown was created based on RAC1 (grey) and NSC23766 (orange) interaction. The pharmacophore model is formed by two hydrogenbond acceptor(HBA)features,one orientedtowardsthe hydroxylgroup of Ser71 (S71) and the other towards the amine group of Gln74 (Q74), one hydrogen bond donor (HBD) feature pointed to the oxygenatom of Leu70 (L70) and two hydrophobic features (HY) located on certain carbon atoms of NSC23766 and facing residues Val36 (V36), Ala59 (A59), Tyr64 (Y64) and Leu67 (L67). The spheres correspond to locationconstraint. The pharmacophoremodel was completedby thirteen exclusion spheres centered on the main residues of RAC1 defining the binding site. The P loop, the switch 1 and the switch 2 are shown in yellow, orange and green respectively. (b) Impact of different screening molecules (10^-5 M) on NIH/3T3 cell adhesion (xCELLingence Real-time cellanalysis, Agilent), migration (CYTOO Mobility plates) and proliferation (xCELLingence Real-time cell analysis, Agilent) .The level of RAC activation is determinedby the detection of RAC-GTP (pull-down assay) in NIH/3T3 cell treated with EGF (10 ng/mL) and the differentmolecules and normalize to the level of RAC activity measuredin the presenceof the reference RAC inhibitor EHT1864.

[3] = tested on: RAC1-GTP levels in MDA-MB-468 Luc cells; assay: RAC-GTP immunofluorescence; type: cell-based; conditions: 10^-5 M, 1 h
Procedure: Luciferase (Luc, green) was used to detect the cells. […] (C) Quantification of colony number of indicated cancer cell lines in the presence of A41 (10 μM) expressed as the percentage of control in the absence of A41. […] (D) Immunoblot analysis and corresponding quantification of AKT and P44/42 expression and phosphorylation (pAKT, p44/42) in MDA-MB-468 Luc cells in the absence (−) and presence of NSC23766 or A41 (1 h at 10^−5 M). […] (E) 3D invasion assay of MDA-MB-468 Luc and cancer-associated fibroblasts (CAFs) and corresponding quantification (scale bars: 200 μm).
After indicated treatments, cells were fixed with 4% paraformaldehyde and permeabilized in PBS 0.5% Triton X-100. To assess RAC1 activity, cells were then incubated with RAC-GTP antibody (26903, NewEast Biosciences, King of Prussia, Pa) (dilution 1/500) overnight at room temperature, followed by secondary Alexa 568-labeled anti-mouse antibody (dilution 1/1000). Cancer cells were detected with firefly luciferase antibody (ab21176, Abcam) (dilution 1/500) overnight at room temperature, followed by secondary Alexa 488-labeled anti-rabbit antibody (dilution 1/1000). To assess cytoskeleton organization, cells were incubated with Alexa Fluor 488 phalloidin (A12379, Invitrogen) to visualize F-actin. After staining, cells were mounted in Prolong gold antifade reagent with DAPI and images were captured by a fluorescence microscope.

[4] = tested on: NIH/3T3 cell migration; assay: 1D cell migration (CYTOO plates); type: cell-based; conditions: 10^-5 M
Procedure: NIH3T3cells (1000/well) were seeded in a 96 well plate with […] fibronectin stripes (CytooPlates Motility, CYTOO) in medium with 1% SVF and allowed to spread for 4 h before capturing time-lapse images for 24 h (image/10 min) on a Widefield Leica DMI 6000B drove with Metamorph software. Cells speed was measured with ImageJ software.
as §2, with “The pharmacophoremodel was completedby thirteen exclusion spheres centered on the main residues of RAC1 defining the binding site. The P loop, the switch 1 and the switch 2 are shown in yellow, orange and green respectively.” left out
as §1

[5] = target: T1, RAC1 (Mus musculus, UniProt P63001); assay: RAC-GTP pull-down assay, EGF-stimulated NIH/3T3 fibroblasts; type: cell-based; conditions: 10^-5 M
T1 construct: endogenous in cells; host or cells: NIH/3T3 fibroblasts (ATCC CRL-1658), EGF-stimulated
Procedure: Figure 2 Identification of a new RAC1 inhibitor (A) Effect of A41 and NSC23766 on ruffle formation (white arrows) induced by EGF (10 ng/mL) in NIH 3T3 cells in serum-free culture medium (CTL). Inhibitors were added at indicated concentration 1 h prior to EGF stimulation. To assess cytoskeleton organization, cells were incubated with Alexa Fluor 488 phalloidin to visualize F-actin. Results shown are representative of 3 independent experiments. Corresponding concentration-response curves have been established by counting the percentages of cells with ruffles (scale bars: 10 μm). (B) Immunoblot analysis and associated quantification of RAC-GTP level and total RAC expression in NIH 3T3 cells stimulated by EGF (10 ng/mL, 5 min) and pre-incubated or not (−) with NSC23766, A41, or A415 at 10^−5 M for 1 h (∗∗∗p < 0.001 vs. controls without EGF stimulation, ^###p < 0.001 vs. controls with EGF stimulation) (N > 3). (C) Representative surface plasmon resonance (SPR) sensograms of binding of immobilized RAC1 with increasing concentrations of A41 with or without EDTA (20 mM) (N > 3). (D) Representative in vitro nucleotide exchange catalyzed by the DH-PH of TIAM (10 nM) measured by the binding of fluorescent mant-GTP (1 μM) to RAC1 (0.5 μM, preloaded with GDP) in the presence of indicated concentrations of A41 (out of N = 6). Dotted lines correspond to the experimental curves, and continuous lines represent the fit of experimental points. (E) Kobs and Kmax were determined in each condition (N = 6). (F) Predicted binding modes of A4 to the NSC23766-binding site (left) or the GDP-binding pocket of RAC1 (right). In the NSC23766-binding site of RAC1, the compound A4 (carbon atoms in blue) makes 2 hydrogen bonds (green dotted line) with Ser71 (S71) and 10 hydrophobic interactions (pink dotted line) with Ala3 (A3), Lys5 (K5), Val36 (V36), Trp56 (W56), Tyr64 (Y64), and Leu67 (L67) leading to a docking score of −6.03 kcal/mol. The GDP molecule is shown with fine line. The P loop is shown in yellow, the switch 1 in orange, and the switch 2 in green. […]
Pull-down assay using GST-PBD fusion proteins were performed on NIH-3T3 lysates to assess RAC1 activity as previously described.[63] The precipitated active RAC was subjected to SDS-PAGE and detected by immunoblot with anti-RAC1 antibody (BD biosciences) (dilution 1/1000). […]
screening molecules (10^-5 M) on NIH/3T3 cell adhesion (xCELLingence Real-time cellanalysis, Agilent), migration (CYTOO Mobility plates) and proliferation (xCELLingence Real-time cell analysis, Agilent) .The level of RAC activation is determinedby the detection of RAC-GTP (pull-down assay) in NIH/3T3 cell treated with EGF (10 ng/mL) and the differentmolecules and normalize to the level of RAC activity measuredin the presenceof the reference RAC inhibitor EHT1864.

[6] = target: RAC1 (Homo sapiens, UniProt P63000); assay: Nucleotide exchange kinetics (mant-GTP/mant-GDP fluorescence); type: biochemical; parameters: Full-length RAC1 carrying a 6xHis tag in C-terminus was purified as previously described; 6xHis (C); made in house
Procedure: Figure 2 Identification of a new RAC1 inhibitor (A) Effect of A41 and NSC23766 on ruffle formation (white arrows) induced by EGF (10 ng/mL) in NIH 3T3 cells in serum-free culture medium (CTL). Inhibitors were added at indicated concentration 1 h prior to EGF stimulation. To assess cytoskeleton organization, cells were incubated with Alexa Fluor 488 phalloidin to visualize F-actin. Results shown are representative of 3 independent experiments. Corresponding concentration-response curves have been established by counting the percentages of cells with ruffles (scale bars: 10 μm). (B) Immunoblot analysis and associated quantification of RAC-GTP level and total RAC expression in NIH 3T3 cells stimulated by EGF (10 ng/mL, 5 min) and pre-incubated or not (−) with NSC23766, A41, or A415 at 10^−5 M for 1 h (∗∗∗p < 0.001 vs. controls without EGF stimulation, ^###p < 0.001 vs. controls with EGF stimulation) (N > 3). (C) Representative surface plasmon resonance (SPR) sensograms of binding of immobilized RAC1 with increasing concentrations of A41 with or without EDTA (20 mM) (N > 3). (D) Representative in vitro nucleotide exchange catalyzed by the DH-PH of TIAM (10 nM) measured by the binding of fluorescent mant-GTP (1 μM) to RAC1 (0.5 μM, preloaded with GDP) in the presence of indicated concentrations of A41 (out of N = 6). Dotted lines correspond to the experimental curves, and continuous lines represent the fit of experimental points. (E) Kobs and Kmax were determined in each condition (N = 6). (F) Predicted binding modes of A4 to the NSC23766-binding site (left) or the GDP-binding pocket of RAC1 (right). In the NSC23766-binding site of RAC1, the compound A4 (carbon atoms in blue) makes 2 hydrogen bonds (green dotted line) with Ser71 (S71) and 10 hydrophobic interactions (pink dotted line) with Ala3 (A3), Lys5 (K5), Val36 (V36), Trp56 (W56), Tyr64 (Y64), and Leu67 (L67) leading to a docking score of −6.03 kcal/mol. The GDP molecule is shown with fine line. The P loop is shown in yellow, the switch 1 in orange, and the switch 2 in green. In the GDP-binding pocket, A4 establishes 6 hydrogen bonds with Gly15 (G15), Lys16 (K16), Cys18 (C18), and Lys116 (K116), 1 carbon hydrogen bond with Lys116, and 9 hydrophobic interactions with Cys18, Ile33 (I33), Lys116, Leu119 (L119), and Leu160 (L160), resulting in a docking score of −10.32 kcal/mol.
Figure 3 Inhibitory mechanism of A41 (A–D) RAC1 activity was monitored by the change in mant-GTP/GDP fluorescence induced by its binding to or releasing from RAC1 (A–D). GDP-bound RAC1 (0.5 μM) was incubated with TRIO (10 nM) and the indicated concentrations of mant-GTP without and with A41 (5 μM) (A–C). Mant-GDP-bound RAC1 (0.5 μM) was incubated with TRIO (10 nM) and GTP (1 μM) without and with A41 (5 μM) (D). AU: arbitrary fluorescence units. All experiments were done in triplicate. Kmax and Kmin are expressed as mean ± SEM. ∗∗p < 0.01 and ∗∗∗p < 0.001 vs. TRIO. (E) Deconvoluted mass spectra generated from crude mass spectrum analyses to evaluate RAC1 photolabeling with [N3]-A41 by LC-HRMS on native protein. (F) Representative mass spectra of both labeled and unlabeled […] peptide during LC-HRMS analysis of RAC1 photolabeling with [N3]-A41 after trypsin digestion. (G) Predicted binding mode of A41 to the GDP-binding pocket of RAC1. Compound A41 (orange) makes 4 hydrogen bonds (green dotted line) with Lys16 (K16), Cys18 (C18), and Lys116 (K116), 2 carbon hydrogen bond (light green dotted line) with Val14 (V14) and Lys116 (K116), and 7 hydrophobic interactions (pink dotted line) with Cys18 (C18), Phe28 (F28), Lys116 (K116), Ala159 (A159), and Leu160 (L160). The P loop is shown in yellow, the switch 1 in orange, and the switch 2 in green.
Full-length RAC1 carrying a 6xHis tag in C-terminus was purified as previously described.[64] Full-length RAC2, RHOG, RHOA and CDC42 were purified as previously described.[64]^,[65] […]

SMILES	Adhesion (% inhib) [1] [%]	Proliferation (% ctrl) [2] [%]	effect on RAC1 activity [3]	Migration (% inhib) [4] [%]	Rac-GTP level (relative to EHT1864) ([5]; EGF 10 ng/mL)	RAC1 activation (active GTP-bound RAC1) ([5]; 1 h, EGF 10 ng/mL 5 min)	Inhibition of RAC1 activity (nucleotide exchange assay) [6] [%]
O=c1cc(CN2CCOCC2)occ1OCCCCCSc1ccnc2cc(C(F)(F)F)ccc12 [EHT1864]	32	101	no	35	1.00		
CCN(CC)CCCC(C)Nc1nc(C)cc(Nc2ccc3nc(C)cc(N)c3c2)n1 (centres unmarked) [NSC23766]	34	131	little effect	20		no significant effect	
COc1ccc(OC)c(NS(=O)(=O)c2ccc(NC(=O)CCSc3ccc(N=[N+]=[N-])cc3)cc2)c1 [[N3]-A41]							46
